# Target: HSP90 (Homo sapiens, UniProt P07900)
# Assay: HSP90 inhibition (HSP90 IC50)
# Assay type: biochemical
row,Compound,IC50 [nM]
1,COc1cccc(C(=O)N[C@H]2C[C@H]3CC[C@@H](C2)N3c2ccc(C(=O)NCc3ccccc3C)cn2)c1C [6-[3-endo-({[2-methyl-3-(methyloxy)phenyl]carbonyl}amino)-8-azabicyclo[3.2.1]oct-8-yl]-N-[(2-methylphenyl)methyl]pyridine-3-carboxamide],< 500
2,"CCC(CC)Nc1cc(C(=O)NC2CC3CCC(C2)N3c2ccc(C(=O)N[C@@H]3CCNC3)cn2)ccc1C(N)=O (stereo partly drawn) [2-[(1-ethylpropyl)amino]-N4-[8-(5-{[(3R)-pyrrolidin-3-ylamino]carbonyl}pyridin-2-yl)-8-azabicyclo[3.2.1]oct-3-endo-yl]benzene-1,4-dicarboxamide]",< 500
3,Cc1c(N)cccc1C(=O)N[C@H]1C[C@H]2CC[C@@H](C1)N2c1ccc(C(=O)NCc2ccccc2)cn1 [6-(3-endo-{[(3-amino-2-methylphenyl)carbonyl]amino}-8-azabicyclo[3.2.1]oct-8-yl)-N-(phenylmethyl)pyridine-3-carboxamide],2000 to 10000
4,"CC(=O)c1ccc(N2[C@@H]3CC[C@H]2C[C@@H](NC(=O)c2ccc(C(N)=O)c(NC4CCOCC4)c2)C3)nc1 [N4-[8-(5-acetylpyridin-2-yl)-8-azabicyclo[3.2.1]oct-3-endo-yl]-2-(tetrahydro-2H-pyran-4-ylamino)benzene-1,4-dicarboxamide]",< 500
5,"CN1CCN(CCC(=O)c2ccc(N3[C@@H]4CC[C@H]3C[C@@H](NC(=O)c3ccc(C(N)=O)c(NCC5CC5)c3)C4)nc2)CC1 [2-[(cyclopropylmethyl)amino]-N4-(8-{5-[3-(4-methylpiperazin-1-yl)propanoyl]pyridin-2-yl}-8-azabicyclo[3.2.1]oct-3-endo-yl)benzene-1,4-dicarboxamide]",< 500
6,COc1cccc(C(=O)N[C@H]2C[C@H]3CC[C@@H](C2)N3c2ccc(C(=O)Nc3ccc(F)cc3)cn2)c1C [N-(4-fluorophenyl)-6-[3-endo-({[2-methyl-3-(methyloxy)phenyl]carbonyl}amino)-8-azabicyclo[3.2.1]oct-8-yl]pyridine-3-carboxamide],1000 to 2000
7,"CC(C)[C@H](C)Nc1cc(C(=O)NC2CC3CCC(C2)N3c2ccc(C(=O)C3CC3)cn2)c(Br)cc1C(N)=O (stereo partly drawn) [2-bromo-N-{8-[5-(cyclopropylcarbonyl)pyridin-2-yl]-8-azabicyclo[3.2.1]oct-3-endo-yl}-5-{[(1S)-1,2-dimethylpropyl]amino}benzene-1,4-dicarboxamide]",< 500
8,COc1cccc(C(=O)N[C@H]2C[C@H]3CC[C@@H](C2)N3c2ccc(C(=O)NCc3ccccc3N3CCN(C)CC3)cn2)c1C [6-[3-endo-({[2-methyl-3-(methyloxy)phenyl]carbonyl}amino)-8-azabicyclo[3.2.1]oct-8-yl]-N-{[2-(4-methylpiperazin-1-yl)phenyl]methyl}pyridine-3-carboxamide],1000 to 2000
9,"COc1cccc(C(=O)N[C@H]2C[C@H]3CC[C@@H](C2)N3c2ccc(C(=O)NCCC(C)(C)C)cn2)c1C [N-(3,3-dimethylbutyl)-6-[3-endo-({[2-methyl-3-(methyloxy)phenyl]carbonyl}amino)-8-azabicyclo[3.2.1]oct-8-yl]pyridine-3-carboxamide]",2000 to 10000
10,"CC(=O)c1ccc(N2[C@@H]3CC[C@H]2C[C@@H](NC(=O)c2ccc(C(N)=O)c(NC4CCCCC4)c2)C3)nc1 [N4-[8-(5-acetylpyridin-2-yl)-8-azabicyclo[3.2.1]oct-3-endo-yl]-2-(cyctohexylamino)benzene-1,4-dicarboxamide]",< 500
11,C[C@H](NC(=O)c1ccc(N2C3CCC2CC(NC(=O)c2cccc(N[C@H]4CC[C@H](O)CC4)c2)C3)nc1)c1ccc(N2CCN(C)CC2)cc1 (stereo partly drawn) [6-{3-endo-[({3-[(4-hydroxycyclohexyl)amino]phenyl}carbonyl)amino]-8-azabicyclo[3.2.1]oct-8-yl}-N-{(1S)-1-[4-(4-methylpiperazin-1-yl)phenyl]ethyl}pyridine-3-carboxamide],2000 to 10000
12,"COc1cc(Nc2cc(C(=O)NC3CC4CCC(C3)N4c3ccc(C(=O)N[C@@H](C)c4ccc(N5CCN(C)CC5)cc4)cn3)ccc2C(N)=O)cc(OC)c1OC (stereo partly drawn) [N4-(8-{5-[({(1S)-1-[4-(4-methylpiperazin-1-yl)phenyl]ethyl}amino)carbonyl]pyridin-2-yl}-8-azabicyclo[3.2.1]oct-3-endo-yl)-2-{[3,4,5-tris(methyloxy)phenyl]amino}benzene-1,4-dicarboxamide]",< 500
13,"CC(C)[C@@H](C)Nc1cc(C(=O)NC2CC3CCC(C2)N3c2ccc(C(=O)C3CC3)cn2)ccc1C(N)=O (stereo partly drawn) [N4-(8-[5-(cyclopropylcarbonyl)pyridin-2-yl]-8-azabicyclo[3.2.1]oct-3-endo-yl)-2-{[(1R)-1,2-dimethylpropyl]amino}benzene-1,4-dicarboxamide]",< 500

# Now from value to compound:
row,IC50 [nM],Compound
1,500 to 999,COc1cccc(C(=O)N[C@H]2C[C@H]3CC[C@@H](C2)N3c2ccc(C(=O)NC3CCCC3)cn2)c1C [N-cyclopentyl-6-[3-endo-({[2-methyl-3-(methyloxy)phenyl]carbonyl}amino)-8-azabicyclo[3.2.1]oct-8-yl]pyridine-3-carboxamide]
2,< 500,"COc1cccc(C(=O)N[C@H]2C[C@H]3CC[C@@H](C2)N3c2ccc(C(=O)NCc3c(F)cccc3F)cn2)c1C [N-[(2,6-difluorophenyl)methyl]-6-[3-endo-({[2-methyl-3-(methyloxy)phenyl]carbonyl}amino)-8-azabicyclo[3.2.1]oct-8-yl]pyridine-3-carboxamide]"
3,< 500,"CN1CCN(c2ccc(CNC(=O)c3ccc(N4[C@@H]5CC[C@H]4C[C@@H](NC(=O)c4ccc(C(N)=O)cc4)C5)nc3)cc2)CC1 [N-(8-{5-[({[4-(4-methylpiperazin-1-yl)phenyl]methyl}amino)carbonyl]pyridin-2-yl}-8-azabicyclo[3.2.1]oct-3-endo-yl)benzene-1,4-dicarboxamide]"
4,2000 to 10000,COc1cccc(C(=O)N[C@H]2C[C@H]3CC[C@@H](C2)N3c2ccc(C(=O)NO)cn2)c1C [N-hydroxy-6-[3-endo-({[2-methyl-3-(methyloxy)phenyl]carbonyl}amino)-8-azabicyclo[3.2.1]oct-8-yl]pyridine-3-carboxamide]
5,1000 to 2000,COc1cccc(C(=O)N[C@H]2C[C@H]3CC[C@@H](C2)N3c2ccc(C(=O)NCCCOC(C)C)cn2)c1C [N-{3-[(1-methylethyl)oxy]propyl}-6-[3-endo-({[2-methyl-3-(methyloxy)phenyl]carbonyl}amino)-8-azabicyclo[3.2.1]oct-8-yl]pyridine-3-carboxamide]
6,< 500,"COc1cccc(C(=O)N[C@H]2C[C@H]3CC[C@@H](C2)N3c2ccc(C(=O)NCc3ccc(F)cc3F)cn2)c1C [N-[(2,4-difluorophenyl)methyl]-6-[3-endo-({[2-methyl-3-(methyloxy)phenyl]carbonyl}amino)-8-azabicyclo[3.2.1]oct-8-yl]pyridine-3-carboxamide]"
7,< 500,"Cc1cc(C(N)=O)c(NC(C)(C)C)cc1C(=O)N[C@H]1C[C@H]2CC[C@@H](C1)N2c1ccc(C(=O)C2CC2)cn1 [N-{8-[5-(cyclopropylcarbonyl)pyridin-2-yl]-8-azabicyclo[3.2.1]oct-3-endo-yl}-5-[(1,1-dimethylethyl)amino]-2-methylbenzene-1,4-dicarboxamide]"
8,< 500,"CCCCCNc1cc(C(=O)N[C@H]2C[C@H]3CC[C@@H](C2)N3c2ccc(C(C)=O)cn2)c(C)cc1C(N)=O [N-[8-(5-acetylpyridin-2-yl)-8-azabicyclo[3.2.1]oct-3-endo-yl]-2-methyl-5-(pentylamino)benzene-1,4-dicarboxamide]"
